What was measured:
Melanocortin receptor 4 [1] = target: T1, Melanocortin receptor 4 (Homo sapiens, UniProt P32245); test: Displacement of [125I]NDP-MSH from HEK293 cells expressing human melanocortin-4 receptor; assay type: cell-based
Melanocortin receptor 4 [2] = target: T1, Melanocortin receptor 4; test: Effective concentration against cAMP release in CHO cells expressing human melanocortin-4 receptor; assay type: functional, cell-based
[3] = target: T2, Melanocyte-stimulating hormone receptor (Homo sapiens, UniProt Q01726); test: Displacement of [125I]NDP-MSH from HEK293 cells expressing human melanocortin-1 receptor; assay type: cell-based
Target sequence in this assay (Q01726 whole entry): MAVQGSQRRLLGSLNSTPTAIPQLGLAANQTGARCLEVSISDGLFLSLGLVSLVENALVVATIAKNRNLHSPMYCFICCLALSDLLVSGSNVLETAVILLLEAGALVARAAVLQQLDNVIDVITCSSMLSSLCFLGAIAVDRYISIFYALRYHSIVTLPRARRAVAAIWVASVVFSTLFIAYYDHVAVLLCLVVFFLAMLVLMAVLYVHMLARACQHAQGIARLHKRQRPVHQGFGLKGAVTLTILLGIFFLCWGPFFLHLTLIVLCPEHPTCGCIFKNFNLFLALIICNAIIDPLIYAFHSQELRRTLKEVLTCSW

Melanocortin receptor 3 = Melanocortin receptor 3 (Homo sapiens, UniProt P41968); test: Displacement of [125I]NDP-MSH from HEK293 cells expressing human melanocortin-3 receptor; assay type: cell-based
Chain of Melanocortin receptor 3 (P41968 whole entry): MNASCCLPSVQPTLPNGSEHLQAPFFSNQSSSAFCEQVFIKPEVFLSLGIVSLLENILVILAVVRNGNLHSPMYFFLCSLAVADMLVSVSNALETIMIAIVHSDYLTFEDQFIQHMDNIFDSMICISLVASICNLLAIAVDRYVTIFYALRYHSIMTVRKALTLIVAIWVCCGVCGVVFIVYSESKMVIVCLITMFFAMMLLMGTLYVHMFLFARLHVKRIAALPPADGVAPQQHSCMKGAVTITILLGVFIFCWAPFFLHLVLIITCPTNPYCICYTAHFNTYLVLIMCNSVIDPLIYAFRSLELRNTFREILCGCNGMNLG

Melanocortin receptor 5 = Melanocortin receptor 5 (Homo sapiens, UniProt P33032); test: Displacement of [125I]NDP-MSH from HEK293 cells expressing human melanocortin-5 receptor; assay type: cell-based
Chain of Melanocortin receptor 5 (P33032 whole entry): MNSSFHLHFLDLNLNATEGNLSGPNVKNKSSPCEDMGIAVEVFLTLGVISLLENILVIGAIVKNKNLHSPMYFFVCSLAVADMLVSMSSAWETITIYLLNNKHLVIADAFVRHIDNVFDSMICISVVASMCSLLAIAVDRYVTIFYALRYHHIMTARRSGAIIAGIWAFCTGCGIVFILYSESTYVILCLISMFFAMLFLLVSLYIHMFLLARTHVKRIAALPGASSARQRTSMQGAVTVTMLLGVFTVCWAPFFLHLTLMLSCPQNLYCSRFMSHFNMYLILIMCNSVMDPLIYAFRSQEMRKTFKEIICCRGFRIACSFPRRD

Melanocortin receptor 4 [4] = target: T1, Melanocortin receptor 4; test: Effective concentration for cAMP release in HEK293 cells expressing human melanocortin-4 receptor; assay type: functional, cell-based
Melanocortin receptor 4 [5] = target: T1, Melanocortin receptor 4; test: Percent intrinsic activity of alpha-MSH-stimulated cAMP level in HEK293 cells expressing human melanocortin-4 receptor; assay type: functional, cell-based
[6] = target: T2, Melanocyte-stimulating hormone receptor; test: Displacement of [125I]NDP-MSH from human melanocortin-1 receptor expressed in HEK 293 cells at 10 uM; assay type: cell-based; settings: HEK293
Target sequence in this assay (Q01726 whole entry, looked up): as the sequence (Q01726 whole entry) above

T1 sequence (P32245 whole entry): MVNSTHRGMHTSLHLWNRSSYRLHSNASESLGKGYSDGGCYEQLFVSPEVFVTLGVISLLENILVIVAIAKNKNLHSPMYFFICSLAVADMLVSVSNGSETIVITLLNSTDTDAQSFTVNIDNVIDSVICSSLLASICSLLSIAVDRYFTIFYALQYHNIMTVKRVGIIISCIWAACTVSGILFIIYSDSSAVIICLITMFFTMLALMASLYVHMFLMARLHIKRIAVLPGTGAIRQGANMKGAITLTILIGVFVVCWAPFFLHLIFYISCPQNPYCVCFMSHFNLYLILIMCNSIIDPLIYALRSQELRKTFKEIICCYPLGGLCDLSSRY

| Ki (Melanocortin receptor 4 [1]) [nM] | EC50 (Melanocortin receptor 4 [2]) [nM] | further results | SMILES |
| --- | --- | --- | --- |
| 120 | 36 |  | O=C(N[C@H](Cc1ccc(Cl)cc1)C(=O)N1CCN(c2ccccc2CNCCCO)CC1)[C@H]1Cc2ccccc2CN1 |
| 13 | 12 | Ki [3]: 2100 nM; Ki (Melanocortin receptor 3): 3600 nM; Ki (Melanocortin receptor 5): 590 nM | CC(N[C@H]1CCNC1)c1ccccc1N1CCN(C(=O)[C@@H](Cc2ccc(Cl)cc2)NC(=O)[C@H]2Cc3ccccc3CN2)CC1 (stereo partly drawn) |
| 25 | 34 |  | CC(NC1CCC(N)CC1)c1ccccc1N1CCN(C(=O)[C@@H](Cc2ccc(Cl)cc2)NC(=O)[C@H]2Cc3ccccc3CN2)CC1 (stereo partly drawn) |
| 53 | 274 |  | O=C(N[C@H](Cc1ccc(Cl)cc1)C(=O)N1CCN(c2ccccc2CNCc2ccco2)CC1)[C@H]1Cc2ccccc2CN1 |
| 27 | 910 | Ki (Melanocortin receptor 3): 2300 nM; Ki (Melanocortin receptor 5): 260 nM | O=C(N[C@H](Cc1ccc(Cl)cc1)C(=O)N1CCN(c2ccccc2CNCCc2ccccc2F)CC1)[C@H]1Cc2ccccc2CN1 |
| 84 | 632 |  | CN(Cc1ccccc1)Cc1ccccc1N1CCN(C(=O)[C@@H](Cc2ccc(Cl)cc2)NC(=O)[C@H]2Cc3ccccc3CN2)CC1 |
| 55 | 40 |  | CN(CCO)Cc1ccccc1N1CCN(C(=O)[C@@H](Cc2ccc(Cl)cc2)NC(=O)[C@H]2Cc3ccccc3CN2)CC1 |
|  |  | Ki (Melanocortin receptor 5): 860 nM | O=C(N[C@H](Cc1ccc(Cl)cc1)C(=O)N1CCC(Cn2cncn2)(C2CCCCC2)CC1)[C@H]1Cc2ccccc2CN1 |
|  |  | Ki [3]: 6000 nM; Ki (Melanocortin receptor 3): 1800 nM; Ki (Melanocortin receptor 5): 240 nM | O=C(N[C@H](Cc1ccc(Cl)cc1)C(=O)N1CCN(c2ccccc2CNCCc2cccs2)CC1)[C@H]1Cc2ccccc2CN1 |
| 90 | 253 |  | O=C(N[C@H](Cc1ccc(Cl)cc1)C(=O)N1CCN(c2ccccc2CNC2CC2)CC1)[C@H]1Cc2ccccc2CN1 |
| 102 | 208 |  | O=C(N[C@H](Cc1ccc(Cl)cc1)C(=O)N1CCN(c2ccccc2CNCC2CCNCC2)CC1)[C@H]1Cc2ccccc2CN1 |
| 6.4 | 3.8 | Ki [3]: 1500 nM; Ki (Melanocortin receptor 3): 2000 nM; Ki (Melanocortin receptor 5): 270 nM; EC50 (Melanocortin receptor 4 [4]): 4.7 nM; IA (Melanocortin receptor 4 [5]): 100% | CC(NC1CCCNC1)c1ccccc1N1CCN(C(=O)[C@@H](Cc2ccc(Cl)cc2)NC(=O)[C@H]2Cc3ccccc3CN2)CC1 (stereo partly drawn) |
| 33 | 2060 |  | CC(NCCc1ccccc1F)c1ccccc1N1CCN(C(=O)[C@@H](Cc2ccc(Cl)cc2)NC(=O)[C@H]2Cc3ccccc3CN2)CC1 (stereo partly drawn) |
| 19 | 18 |  | C[C@H]1CN(Cc2ccccc2N2CCN(C(=O)[C@@H](Cc3ccc(Cl)cc3)NC(=O)[C@H]3Cc4ccccc4CN3)CC2)[C@@H](C)CN1 |
| 81 | 487 |  | O=C(N[C@H](Cc1ccc(Cl)cc1)C(=O)N1CCN(c2ccccc2CNCCc2ccc(F)cc2)CC1)[C@H]1Cc2ccccc2CN1 |
| 11 | 72 |  | CC(NC1CCCC1)c1ccccc1N1CCN(C(=O)[C@@H](Cc2ccc(Cl)cc2)NC(=O)[C@H]2Cc3ccccc3CN2)CC1 (stereo partly drawn) |
| 12 | 138 |  | CC(NCc1ccco1)c1ccccc1N1CCN(C(=O)[C@@H](Cc2ccc(Cl)cc2)NC(=O)[C@H]2Cc3ccccc3CN2)CC1 (stereo partly drawn) |

| Ki (Melanocortin receptor 4 [1]) [nM] | EC50 (Melanocortin receptor 4 [2]) [nM] | further results | SMILES |
| --- | --- | --- | --- |
| 270 | 110 | Ki (Melanocortin receptor 5): 1200 nM; inhibition [6]: 36% | O=C(N[C@H](Cc1ccc(Cl)cc1)C(=O)N1CCN(c2ccccc2Cn2cncn2)CC1)[C@H]1Cc2ccccc2CN1 |
|  | 2.9 |  | CCCC(=O)C1(C2CCCCC2)CCN(C(=O)[C@@H](Cc2ccc(Cl)cc2)NC(=O)[C@@H](Cc2ncc[nH]2)NC(=O)c2ccccc2)CC1 |
| 127 | 91 |  | NCCNCc1ccccc1N1CCN(C(=O)[C@@H](Cc2ccc(Cl)cc2)NC(=O)[C@H]2Cc3ccccc3CN2)CC1 |
| 13 | 15 |  | CC(N[C@H]1CCCCC1N)c1ccccc1N1CCN(C(=O)[C@@H](Cc2ccc(Cl)cc2)NC(=O)[C@H]2Cc3ccccc3CN2)CC1 (stereo partly drawn) |
| 24 | 146 |  | O=C(N[C@H](Cc1ccc(Cl)cc1)C(=O)N1CCN(c2ccccc2CN2CCC(N3CCCC3)CC2)CC1)[C@H]1Cc2ccccc2CN1 |
| 77 | 94 |  | CN(Cc1cccnc1)Cc1ccccc1N1CCN(C(=O)[C@@H](Cc2ccc(Cl)cc2)NC(=O)[C@H]2Cc3ccccc3CN2)CC1 |
| 14 | 460 |  | O=C(N[C@H](Cc1ccc(Cl)cc1)C(=O)N1CCN(c2ccccc2CNCCc2cccc(F)c2)CC1)[C@H]1Cc2ccccc2CN1 |
| 49 | 51 |  | COCCN(C)Cc1ccccc1N1CCN(C(=O)[C@@H](Cc2ccc(Cl)cc2)NC(=O)[C@H]2Cc3ccccc3CN2)CC1 |
| 380 | 274 | Ki (Melanocortin receptor 5): 2300 nM | NCc1ccccc1N1CCN(C(=O)[C@@H](Cc2ccc(Cl)cc2)NC(=O)[C@H]2Cc3ccccc3CN2)CC1 |
| 35 | 190 |  | CN(CCc1ccccn1)Cc1ccccc1N1CCN(C(=O)[C@@H](Cc2ccc(Cl)cc2)NC(=O)[C@H]2Cc3ccccc3CN2)CC1 |
| 66 | 164 |  | O=C(N[C@H](Cc1ccc(Cl)cc1)C(=O)N1CCN(c2ccccc2CNC2CCCC2)CC1)[C@H]1Cc2ccccc2CN1 |
| 490 | 90 |  | O=C(O)CCNCc1ccccc1N1CCN(C(=O)[C@@H](Cc2ccc(Cl)cc2)NC(=O)[C@H]2Cc3ccccc3CN2)CC1 |
| 145 | 300 |  | O=C(N[C@H](Cc1ccc(Cl)cc1)C(=O)N1CCN(c2ccccc2CN2CCN(c3ccccc3)CC2)CC1)[C@H]1Cc2ccccc2CN1 |
| 52 | 240 |  | CCN(CC)Cc1ccccc1N1CCN(C(=O)[C@@H](Cc2ccc(Cl)cc2)NC(=O)[C@H]2Cc3ccccc3CN2)CC1 |
| 23 | 174 |  | CC(NC1CC1)c1ccccc1N1CCN(C(=O)[C@@H](Cc2ccc(Cl)cc2)NC(=O)[C@H]2Cc3ccccc3CN2)CC1 (stereo partly drawn) |
| 24 | 577 |  | CC(NCCc1cccs1)c1ccccc1N1CCN(C(=O)[C@@H](Cc2ccc(Cl)cc2)NC(=O)[C@H]2Cc3ccccc3CN2)CC1 (stereo partly drawn) |

— ChEMBL document CHEMBL1137176, “Structure-activity relationships of piperazinebenzylamines as potent and selective agonists of the human melanocortin-4 receptor” (Bioorg Med Chem Lett, 2004)
